Source: patent US7538129B2, “Diazonamide A analog” (Board of Regents, The University of Texas System, priority 2005, dated 2009)
“Also recorded” adds a separate entry of the source.

Key:
Assay type in all cases: in vivo, mice
[1] = test system: neutrophils (GR1+ cells) in bone marrow; assay: neutrophil counts in bone marrow; conditions: for neutrophil counts in bone marrow: 5 mg/kg; for neutrophil counts in bone marrow (number of GR1+ cells in one femu): 20 mg/kg, FIG. 5A
Source text: In addition to measuring the affect on tumors, the effect of paclitaxel and Compound J on neutrophils in […] and blood were obtained. […] The data are provided as the number of GR1+ cells in one femu.
(§1) The details of the protocol for Examples 19 and 20 are as follows: […]

[2] = test system: neutrophils in peripheral blood; assay: neutrophil count in peripheral blood; conditions: for neutrophil count in peripheral blood, ANC (cell/ml): FIG. 5B
Source text: as §1

HCT116 xenografts = assay: growth inhibition of HCT116 xenografts; conditions: for #Tumor Free (day) / % Max T/C / Log10 Tumor Cell Kill: HCT116 (colon)
Procedure: Details of the preparation of murine models containing xenografts of HCT116 cells or PC-3 cells are described in the section following these examples. After the tumors were grown, therapy utilizing Compound J or paclitaxel was initiated. […] In FIG. 4A, the *'s represent control mice, the squares represent 5 mg/kg Compound J; the diamonds represent 20 mg/kg Compound J; and the slanted line represents 20 mg/kg paclitaxel.
The details of the protocol for Examples 19 and 20 are as follows:
• PC3 prostrate tumor cells and HCT116 colon tumor cells (acquired from the tumor repository Division of Cancer Treatment and Diagnosis (DCTD) of the NCI • Complete RPMI Media • RPMI (Cat# 11875-085, Invitrogen) • 10% Heat-inactivated (30′ 56° C.) Fetal Bovine Serum (Cat# 100-106, Gemini Bio-Products • 2 mM L-glutamine (Cat# 25030-081, Invitrogen) • 0.1 mM MEM Non-Essential Amino Acids Solution (Cat#11140-050, Invitrogen) • 10 U/ml Penicillin/10 μg/ml Streptomycin (Cat#15140-122, Invitrogen) • 1 mM Sodium Pyruvate (Cat#l 1360-070) • Trypsin-EDTA (Cat#25300-054, Invitrogen) • Ca^2+/Mg^2+-free Phosphate Buffered Saline, 5% dextrose in water • Cell Culture Dish 150 mm×25 mm (Cat# 430599, Coming, Inc.) • 10 and 25 ml pipets, standard pipet-aid, p200 and p1000 pipette tips and standard pipetmen • Athymic NCr-nu/nu nude mice at 6-12 weeks of age, either sex (Strain code: 01B74, NCI Frederick Animal Production Program—suppliers include Charles River Labs and Taconic Farms). Female mice of approximately 7 weeks of age were utilized for existing experiments. • Standard 1 cc tuberculin syringe, 30G½ and 25G⅝ needles (Becton Dickinson) • Falcon 5 ml tubes (Cat#352054) • 50 and 15 ml disposable plastic conical tubes (Falcon or similar vendor) • Trypan Blue Solution (0.4%) (Cat#T8154, Sigma) • Hausser phase contrast hemacytometer (Cat# 02-671-54, Fisher) • Ice bucket • Balance for weighing mice (accurate to 0.2 g) • Vernier calipers • Vivarium facility free from known pathogens (nude mice should be housed in isolation from conventional mice if possible—separate rooms or micro-isolator cages equipped with individual air flow; all animal housing, bedding, water should be autoclaved prior to use; standard irradiated mouse chow should be used; animals should be changed out of cages within laminar flow hood; investigators handling mice should be suitably garbed—disposable gown, bonnet, booties, gloves, mask) • AB-5 (Compound J) compound • Ethyl alcohol, 200 proof (Aaper, MFD 041205) • Cremaphor (Cat# C5135, Sigma) • Paclitaxel (Cat#ANP0010, Polymed Therapeutics) Procedure: • 1) Rapidly thaw PC3 or HCT116 cells (if necessary) in 37° C. water bath. Transfer contents to 9ml complete RPMI media. Spin 5′ at 1200 rpm (240 Xg). Discard media and resuspend pellet in 8 ml complete RPMI media. Plate in 100 mm×25 mm cell culture dish in 5% CO2, 37° C. humidified incubator. • 2) Allow to grow for 5-10 days, splitting (aspirate media, wash with 3-5 ml PBS, add 1 ml trypsin-EDTA, incubate 3-5′ at 37° C., add media to desired volume and transfer to multiple plates) 1:8 to 1:10 every 3-4 days as necessary to allow cells to enter phase of logarithmic growth. • 3) When cells are growing well, begin to expand to 150 mm×25 mm dishes. We use 20 ml of media in a 150 mm dish and use 2 ml of trypsin for splitting. When nearly confluent, there should be 2×10^7 cells/150 mm dish. • 4) Plan ahead to time arrival of nu/nu mice such that they can acclimate to animal facility for 1 week prior to injection of tumor cells. […] Plan to inject 10 million cells/mouse and allow for loss of cells/volume during injection process. That is, if 30 mice are to be injected, plan to harvest cells sufficient for at least 35 injections—35×10 million cells=3.5×10^8 cells. In the existing HCT116 experiment, 7.5×10^6 cells were injected per mouse. Five mice per group were utilized for AB-5 treatment and four mice per group were utilized for the control and paclitaxel treatments. […]

Which results are given for CC(C)[C@H](O)C(=O)N[C@H]1Cc2ccc3c(c2)[C@]24C5=C(N=C(O5)[C@H](C(C)C)NC1=O)c1ncc(o1)-c1c[nH]c5cccc(c15)-c1cccc2c1NC4O3 (stereo in doubt) [Compound J]?
neutrophil counts in bone marrow [1]: no effect; neutrophil counts in bone marrow (number of GR1+ cells in one femu) [1]: no effect; neutrophil proliferation or cell counts in vivo ([1]; FIG. 5A legend): no effect; neutrophil count in peripheral blood, ANC (cell/ml) ([2]; 5 mg/kg): no effect; also recorded: not significantly affected; neutrophil count in peripheral blood, ANC (cell/ml) ([2]; 20 mg/kg): no effect; also recorded: not significantly affected; neutrophil proliferation or cell counts in vivo ([2]; FIG. 5B legend): no effect; inhibition of growth of HCT116 xenografts (HCT116 xenografts; FIG. 4A, 20 mg/kg IV): comparable to paclitaxel; also recorded: slows tumor growth in a manner similar to paclitaxel; #Tumor Free (day) (HCT116 xenografts; 5 mg/kg, IP): 0/5; % Max T/C (HCT116 xenografts; 5 mg/kg, IP): 41.9%; Log10 Tumor Cell Kill (HCT116 xenografts; 5 mg/kg, IP): 0.37; #Tumor Free (day) (HCT116 xenografts; 5 mg/kg, IV): 0/5; % Max T/C (HCT116 xenografts; 5 mg/kg, IV): 26.5%; Log10 Tumor Cell Kill (HCT116 xenografts; 5 mg/kg, IV): 0.54; #Tumor Free (day) (HCT116 xenografts; 20 mg/kg, IP): 0/5; % Max T/C (HCT116 xenografts; 20 mg/kg, IP): 9.3%; Log10 Tumor Cell Kill (HCT116 xenografts; 20 mg/kg, IP): 1.0; % Max T/C (HCT116 xenografts; 20 mg/kg, IV): 0.2%; Log10 Tumor Cell Kill (HCT116 xenografts; 20 mg/kg, IV): 1.8; animals free of tumors (HCT116 xenografts; free of tumors for over five months): four of 10; weight loss (HCT116 xenografts; tumor-free animals, over five months): no weight loss

Which “neutrophil counts in bone marrow” value [1] does the source give for CC(=O)O[C@H]1C(=O)[C@@]2(C)[C@H]([C@H](OC(=O)c3ccccc3)[C@]3(O)C[C@H](OC(=O)[C@H](O)[C@@H](NC(=O)c4ccccc4)c4ccccc4)C(C)=C1C3(C)C)[C@]1(OC(C)=O)CO[C@@H]1C[C@@H]2O [paclitaxel, reference compound] here?
Its value is “reduction of neutrophil counts”.

And the “neutrophil counts in bone marrow (number of GR1+ cells in one femu)” value [1]?
The value was “reduction of neutrophil counts; also recorded: significantly lowered”.

What about the “neutrophil count in peripheral blood, ANC (cell/ml)” value ([2]; 5 mg/kg) of the same compound?
Its value is “reduction of neutrophil counts; also recorded: greatly lowered”.

What about the “neutrophil count in peripheral blood, ANC (cell/ml)” value ([2]; 20 mg/kg) of the same compound?
The value was “reduction of neutrophil counts; also recorded: greatly lowered”.

What about the “% Max T/C” value (HCT116 xenografts; 20 mg/kg, IV) of the same compound?
Its value is 0.2%.

What about the “Log10 Tumor Cell Kill” value (HCT116 xenografts; 20 mg/kg, IV) of the same compound?
The value was 3.2.
